Values of other authors as cited in patent US20080044486A1, “Controlled Food Effect Composition” (priority 2003, published 2008).

Experiments:
[1] = oral, conventional pharmaceutical composition

| SMILES | Food effect in a conventional composition (references) [1] | LogP |
| --- | --- | --- |
| CC(=O)Oc1ccccc1C(=O)O [Acetylsalicylic acid] | Delayed absorption and reduced | – |
| COc1cc(C)c(/C=C/C(C)=C/C=C/C(C)=C/C(=O)O)c(C)c1C [Acitretin] | Increased absorption (2, 4) | 6.4 |
| CCCCc1oc2ccccc2c1C(=O)c1cc(I)c(OCCN(CC)CC)c(I)c1 [Amiodarone] | Increased absorption (3) | – |
| CO[C@H]1O[C@@H]2O[C@@]3(C)CC[C@H]4[C@H](C)CC[C@@H]([C@H]1C)[C@@]24OO3 [Artemether] | High-fat food gives increased | 3.5 |
| O=C1C(O)=C([C@H]2CC[C@H](c3ccc(Cl)cc3)CC2)C(=O)c2ccccc21 [Atovaquone] | High-fat food gives increased | 4.9 |
| CC(C)/N=c1\cc2n(-c3ccc(Cl)cc3)c3ccccc3nc-2cc1Nc1ccc(Cl)cc1 [Clofazimine] | Increased absorption (2, 4) | – |
| C#C[C@]1(O)CC[C@H]2[C@@H]3CCC4=Cc5oncc5C[C@]4(C)[C@H]3CC[C@@]21C [Danazol] | – | 4.3 |
| CCOC(=O)/C=C(C)/C=C/C=C(C)/C=C/c1c(C)cc(OC)c(C)c1C [Etretinate] | – | 6.6 |
| CCOC(=O)C1=C(C)NC(C)=C(C(=O)OC)C1c1cccc(Cl)c1Cl (stereo not shown) [Felodipine] | High-fat food gives increased | – |
| CC1=C(/C=C/C(C)=C/C=C/C(C)=C/C(=O)Nc2ccc(O)cc2)C(C)(C)CCC1 [Fenretinide] | High-fat food gives increased | 6.1 |
| CC1=C(/C=C/C(C)=C/C=C/C(C)=C\C(=O)O)C(C)(C)CCC1 [Isotretinoin] | Increased absorption (7) | – |
| CCC(C)n1ncn(-c2ccc(N3CCN(c4ccc(OCC5COC(Cn6cncn6)(c6ccc(Cl)cc6Cl)O5)cc4)CC3)cc2)c1=O (stereo not shown) [Itraconazole] | Increased but delayed absorption | 5.7 |
| CCOC(=O)N1CCC(=C2c3ccc(Cl)cc3CCc3cccnc32)CC1 [Loratadine] | Increased but delayed absorption | – |
| CCCCN(CCCC)CC(O)c1cc(Cl)cc2c1-c1ccc(Cl)cc1/C2=C/c1ccc(Cl)cc1 (stereo not shown) [Lumefantrine] | High-fat food gives increased | 8.9 |
| COC(=O)C1=C(C)NC(C)=C(C(=O)OCCN2CCN(C(c3ccccc3)c3ccccc3)CC2)C1c1cccc([N+](=O)[O-])c1 (stereo not shown) [Manidipine] | Increased absorption (2) | 4.1 |
| Cc1c(-c2cnccn2)ssc1=S [Oltipraz] | Increased absorption (6) | 1.7 |
| O=C(c1ccc(OCCN2CCCCC2)cc1)c1c(-c2ccc(O)cc2)sc2cc(O)ccc12 [Raloxifene] | – | 5.5 |
| NC(=O)c1ncn([C@@H]2O[C@H](CO)[C@@H](O)[C@H]2O)n1 [Ribavirin] | High-fat food gives increased | −1.9 |
| CC(C)c1nc(CN(C)C(=O)N[C@H](C(=O)N[C@@H](Cc2ccccc2)C[C@H](O)[C@H](Cc2ccccc2)NC(=O)OCc2cncs2)C(C)C)cs1 [Ritonavir] | Increased absorption (1, 4, 5) | – |
| NC(=O)c1cn(Cc2c(F)cccc2F)nn1 [Rufinamide] | – | 0.8 |
| CC(C)(C)NC(=O)[C@@H]1C[C@@H]2CCCC[C@@H]2CN1C[C@@H](O)[C@H](Cc1ccccc1)NC(=O)[C@H](CC(N)=O)NC(=O)c1ccc2ccccc2n1 [Saquinavir] | – | 3.8 |
| CO[C@H]1C[C@@H]2CC[C@@H](C)[C@@](O)(O2)C(=O)C(=O)N2CCCC[C@H]2C(=O)O[C@H]([C@H](C)C[C@@H]2CC[C@@H](O)[C@H](OC)C2)CC(=O)[C@H](C)/C=C(\C)[C@@H](O)[C@@H](OC)C(=O)[C@H](C)C[C@H](C)/C=C/C=C/C=C/1C [Sirolimus] | High-fat food gives increased | 5.3 |
| CC(=O)S[C@@H]1CC2=CC(=O)CC[C@]2(C)[C@H]2CC[C@@]3(C)[C@@H](CC[C@@]34CCC(=O)O4)[C@H]12 [Spironolactone] | Increased absorption and reduced | 2.8 |
| CC(C)OC(=O)OCOP(=O)(CO[C@H](C)Cn1cnc2c(N)ncnc21)OCOC(=O)OC(C)C [Tenofovir disoproxil] | High-fat food gives increased | 0.6 |
| CCCC(CCC)C(=O)O [Valproic acid] | Delayed absorption and reduced | – |
